Test results taken from patent US20240336602A1 (Katholieke Universiteit Leuven, priority 2020, published 2024).

Target: T1, mouse TRPM3a2 (mTRPM3) ion channel (Mus musculus, UniProt J9SQF3)
T1 construct: expressed in transfected cells; host or cells: flip-in HEK293
Test: TRPM3 ion channel driven Ca2+ uptake, Fluo-4 AM assay (PS-stimulated, overexpressing flip-in HEK293 cells)
Assay type: cell-based
Conditions: PS (50 μM) stimulated
Protocol: In order to monitor the inhibition of the mouse TRPM3a2 (mTRPM3) ion channel by the compounds of the invention, a cellular system making use of an mTRPM3alpha2 or hTRPM3 overexpressing cell line (flip-in HEK293) was used. The TRPM3 channel was stimulated/opened with Pregnenolone sulfate (PS) (50 μM) which results in Ca^2+ influx.
For mTRPM3, the intracellular Ca^2+ was measured with a Calcium responsive dye, Fluor-4 AM ester (Invitrogen). Cells were cultured until a confluence of 80-90%, washed with Versene (Invitrogen) and detached from the surface by a short incubation with 0.05% Trypsin (Invitrogen). The trypsination process was stopped by the addition of complete cell culture medium (DMEM, glutamax, 10% FCS, NEAA, Pen-Strep). Cells were collected and resuspended in Krebs buffer without Calcium at RT.
Prior the cell seeding (±2000 cells/well into a black, 384 well plate (Greiner)) the diluted compound was added in the assay plate, together with the PS dissolved in Krebs buffer containing Calcium. […] Directly after cell addition the plates were read on an Envision fluorescence reader (Perkin Elmer) by an Excitation of 485 nm and emission at 535 nm.
Channel inhibition was calculated compared to a non-PS stimulated control versus a condition stimulated with PS (50 μM) with vehicle. The ability of the compounds of the invention to inhibit this activity was determined as: Percentage inhibition=[1-((RFU determined for sample with test compound present—RFU determined for sample with positive control inhibitor) divided by (RFU determined in the presence of vehicle—RFU determined for sample with positive control inhibitor))]*100.

T1 sequence (J9SQF3 1-1709 isoform J9SQF3-12): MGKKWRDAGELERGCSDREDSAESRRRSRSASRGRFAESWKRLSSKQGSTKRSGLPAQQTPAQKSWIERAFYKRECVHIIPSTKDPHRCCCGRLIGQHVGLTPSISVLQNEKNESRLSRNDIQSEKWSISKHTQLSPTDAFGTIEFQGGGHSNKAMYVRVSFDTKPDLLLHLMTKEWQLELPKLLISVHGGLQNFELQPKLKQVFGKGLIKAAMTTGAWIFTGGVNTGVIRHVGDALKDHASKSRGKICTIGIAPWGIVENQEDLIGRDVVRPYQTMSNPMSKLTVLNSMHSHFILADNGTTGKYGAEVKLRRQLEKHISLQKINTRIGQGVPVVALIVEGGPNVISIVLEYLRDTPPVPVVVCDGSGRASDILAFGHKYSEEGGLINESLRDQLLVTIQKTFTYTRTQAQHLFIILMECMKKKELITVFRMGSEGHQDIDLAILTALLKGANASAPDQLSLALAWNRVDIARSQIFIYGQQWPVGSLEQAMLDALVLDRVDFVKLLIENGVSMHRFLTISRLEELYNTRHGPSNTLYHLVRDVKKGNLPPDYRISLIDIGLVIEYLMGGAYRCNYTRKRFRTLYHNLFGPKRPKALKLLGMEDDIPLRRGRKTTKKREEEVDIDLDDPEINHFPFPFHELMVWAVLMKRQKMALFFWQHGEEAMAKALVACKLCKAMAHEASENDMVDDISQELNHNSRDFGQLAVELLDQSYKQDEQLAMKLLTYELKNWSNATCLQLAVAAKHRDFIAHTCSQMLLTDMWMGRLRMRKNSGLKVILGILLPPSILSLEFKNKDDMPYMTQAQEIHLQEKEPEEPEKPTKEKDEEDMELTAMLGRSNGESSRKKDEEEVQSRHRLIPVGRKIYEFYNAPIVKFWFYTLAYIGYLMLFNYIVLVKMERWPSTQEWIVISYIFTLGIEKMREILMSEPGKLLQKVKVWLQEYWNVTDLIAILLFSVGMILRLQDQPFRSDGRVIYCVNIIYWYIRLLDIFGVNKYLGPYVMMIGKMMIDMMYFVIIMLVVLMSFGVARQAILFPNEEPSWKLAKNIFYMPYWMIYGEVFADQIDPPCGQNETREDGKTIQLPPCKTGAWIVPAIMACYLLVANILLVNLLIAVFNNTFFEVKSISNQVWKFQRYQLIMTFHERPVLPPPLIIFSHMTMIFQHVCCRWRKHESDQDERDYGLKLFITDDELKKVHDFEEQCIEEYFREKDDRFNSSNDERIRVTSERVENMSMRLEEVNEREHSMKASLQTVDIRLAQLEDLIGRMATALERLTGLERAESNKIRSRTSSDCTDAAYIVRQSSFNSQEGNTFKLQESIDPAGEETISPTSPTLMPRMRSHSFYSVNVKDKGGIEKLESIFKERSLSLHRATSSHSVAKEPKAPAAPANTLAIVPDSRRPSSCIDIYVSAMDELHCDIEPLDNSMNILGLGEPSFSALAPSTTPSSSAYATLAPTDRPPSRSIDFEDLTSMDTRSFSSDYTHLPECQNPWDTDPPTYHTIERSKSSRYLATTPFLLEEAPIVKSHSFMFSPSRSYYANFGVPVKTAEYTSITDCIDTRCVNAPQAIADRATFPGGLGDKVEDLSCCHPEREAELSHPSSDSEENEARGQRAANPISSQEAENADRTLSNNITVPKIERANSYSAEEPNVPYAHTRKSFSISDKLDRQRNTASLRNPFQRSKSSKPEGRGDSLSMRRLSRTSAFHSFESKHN

IC50 (cpds. 400-499) [µM]	IC50 (cpds. 500-599) [µM]	Compound
≤ 1		Cc1ncc(COc2ccc3oc(C)c(C(=O)NC(CO)CN(C)C)c3c2)s1 (single isomer, unassigned) [412 - En 1]
≤ 1		Cc1oc2ccc(OCc3ccnn3C)cc2c1C(=O)NC(C)C(N)=O (single isomer, unassigned) [433 - En 1]
≤ 1		Cc1oc2ccc(OCc3cccnc3O)cc2c1C(=O)NC(C)C(N)=O (single isomer, unassigned) [436 - En 1]
≤ 1		COc1ncccc1COc1ccc2oc(C)c(C(=O)NC(C)C(N)=O)c2c1 (single isomer, unassigned) [437 - En 1]
≤ 1		Cc1ncsc1COc1ccc2oc(C)c(C(=O)NC(CN(C)C)C(N)=O)c2c1 (single isomer, unassigned) [450 - En 1]
≤ 1		Cc1oc2ccc(OCc3nccn3C)cc2c1C(=O)NC(CO)C(N)=O (single isomer, unassigned) [451 - En 1]
≤ 1		Cc1oc2ccc(OCc3ccnn3CC(F)F)cc2c1C(=O)NC(CO)C(N)=O (single isomer, unassigned) [456 - En 1]
≤ 1		Cc1oc2ccc(OCc3cccnc3C(F)F)cc2c1C(=O)NC(CO)C(N)=O (single isomer, unassigned) [457 - En 1]
≤ 1		Cc1oc2ccc(OCc3cccnc3O)cc2c1C(=O)NC(CO)C(N)=O (single isomer, unassigned) [459 - En 1]
≤ 1		Cc1ncc(COc2ccc3oc(C)c(C(=O)NC(C)(CO)C(N)=O)c3c2)s1 (single isomer, unassigned) [462 - En 1]
≤ 1		Cc1ncsc1COc1ccc2oc(C)c(C(=O)NC(C)(CO)C(N)=O)c2c1 (single isomer, unassigned) [463 - En 2]
	≤ 1	Cc1ncsc1COc1ccc2oc(C)c(C(=O)NC3(CO)CCCNC3=O)c2c1 (single isomer, unassigned) [513 - En 1]
	≤ 1	Cc1ccc(COc2ccc3oc(C)c(C(=O)NC4(CO)CCCNC4=O)c3c2)cn1 (single isomer, unassigned) [514 - En 1]
	≤ 1	Cc1oc2ccc(OCc3ccccn3)cc2c1C(=O)NC1(CO)CCNC1=O (single isomer, unassigned) [520 - En 1]
	1 to 20	Cc1oc2ccc(OCc3cccn(C)c3=O)cc2c1C(=O)NC1CCNCC1(F)F (single isomer, unassigned) [544 - En 1]
	≥ 20	Cc1oc2ccc(OCc3cccc(O)n3)cc2c1C(=O)NC1CCNCC1(F)F (single isomer, unassigned) [569 - En 2, N-(3,3-difluoropiperidin-4-yl)-2-methyl-5-((6-oxo-1,6-dihydropyridin-2-yl)methoxy)benzofuran-3-carboxamide]
	≤ 1	Cc1ncccc1COc1ccc2oc(C)c(C(=O)NC3(C(N)=O)CCOC3)c2c1 (single isomer, unassigned) [591 - En 1]
	≤ 1	Cc1ncccc1COc1ccc2oc(C)c(C(=O)NC3(C(N)=O)CCOC3)c2c1 (single isomer, unassigned) [591 - En 2]
	≤ 1	Cc1ccc(COc2ccc3oc(C)c(C(=O)NC4(C(N)=O)CCOC4)c3c2)cn1 (single isomer, unassigned) [594 - En 1]
	≤ 1	Cc1ccc(COc2ccc3oc(C)c(C(=O)NC4(C(N)=O)CCOC4)c3c2)cn1 (single isomer, unassigned) [594 - En 2]
	≤ 1	COc1ncccc1COc1ccc2oc(C)c(C(=O)NC3(C(N)=O)CCOC3)c2c1 (single isomer, unassigned) [597 - En 1]

Continued, compound first:

Compound	IC50 (cpds. 400-499) [µM]	IC50 (cpds. 500-599) [µM]
Cc1ncsc1COc1ccc2oc(C)c(C(=O)NC(CO)C(=O)N(C)C)c2c1 (single isomer, unassigned) [411 - En 1]	≤ 1	
Cc1ncc(COc2ccc3oc(C)c(C(=O)NC(CN(C)C4CC4)C(N)=O)c3c2)s1 (single isomer, unassigned) [445 - En 1]	≤ 1	
Cc1ncc(COc2ccc3oc(C)c(C(=O)NC(CN(C)C4CC4)C(N)=O)c3c2)s1 (single isomer, unassigned) [445 - En 2]	1 to 20	
Cc1ncsc1COc1ccc2oc(C)c(C(=O)NC(CN(C)C3CC3)C(N)=O)c2c1 (single isomer, unassigned) [446 - En 1]	≤ 1	
Cc1ncsc1COc1ccc2oc(C)c(C(=O)NC(CN(C)C3CC3)C(N)=O)c2c1 (single isomer, unassigned) [446 - En 2]	1 to 20	
Cc1ncc(COc2ccc3oc(C)c(C(=O)NC(CN(C)C)C(N)=O)c3c2)s1 (single isomer, unassigned) [449 - En 1]	≤ 1	
Cc1oc2ccc(OCc3nccn3C)cc2c1C(=O)NC(CO)C(N)=O (single isomer, unassigned) [451 - En 2]	1 to 20	
Cc1oc2ccc(OCc3ccnn3C)cc2c1C(=O)NC(CO)C(N)=O (single isomer, unassigned) [452 - En 1]	≤ 1	
Cc1nc(C)c(COc2ccc3oc(C)c(C(=O)NC(CO)C(N)=O)c3c2)s1 (single isomer, unassigned) [458 - En 1]	≤ 1	
Cc1ncccc1COc1ccc2oc(C)c(C(=O)NC(C)(CO)C(N)=O)c2c1 (single isomer, unassigned) [461 - En 1]	≤ 1	
Cc1ccc(COc2ccc3oc(C)c(C(=O)NC(C)(CO)C(N)=O)c3c2)cn1 (single isomer, unassigned) [464 - En 1]	≤ 1	
COCC(NC(=O)c1c(C)oc2ccc(OCc3scnc3C)cc12)C(N)=O (single isomer, unassigned) [467 - En 1]	≤ 1	
COCC(C)(NC(=O)c1c(C)oc2ccc(OCc3scnc3C)cc12)C(N)=O (single isomer, unassigned) [468 - En 1]	≤ 1	
Cc1ncc(COc2ccc3oc(C)c(C(=O)NC(CO)CN4CCOCC4)c3c2)s1 (single isomer, unassigned) [487 - En 1]	1 to 20	
Cc1ncsc1COc1ccc2oc(C)c(C(=O)NC(CO)CN3CCOCC3)c2c1 (single isomer, unassigned) [488 - En 1]	≤ 1	
Cc1ncsc1COc1ccc2oc(C)c(C(=O)NC(CO)CN3CCOCC3)c2c1 (single isomer, unassigned) [488 - En 2]	1 to 20	
Cc1oc2ccc(OCc3cccnc3C(F)(F)F)cc2c1C(=O)NC1(CO)CCCNC1=O (single isomer, unassigned) [510 - En 1]		≤ 1

Compound	IC50 (cpds. 400-499) [µM]	IC50 (cpds. 500-599) [µM]
Cc1ncc(COc2ccc3oc(C)c(C(=O)NC4(CO)CCCNC4=O)c3c2)o1 (single isomer, unassigned) [511 - En 1]		≤ 1
Cc1ncc(COc2ccc3oc(C)c(C(=O)NC4(CO)CCCNC4=O)c3c2)o1 (single isomer, unassigned) [511 - En 2]		1 to 20
Cc1ncccc1COc1ccc2oc(C)c(C(=O)NC3(CO)CCCNC3=O)c2c1 (single isomer, unassigned) [512 - En 1]		≤ 1
Cc1ncccc1COc1ccc2oc(C)c(C(=O)NC3(CO)CCNC3=O)c2c1 (single isomer, unassigned) [516 - En 1]		≤ 1
Cc1ncsc1COc1ccc2oc(C)c(C(=O)NC3(CO)CCNC3=O)c2c1 (single isomer, unassigned) [518 - En 1]		≤ 1
Cc1ccc(COc2ccc3oc(C)c(C(=O)NC4(CO)CCNC4=O)c3c2)cn1 (single isomer, unassigned) [519 - En 1]		≤ 1
Cc1oc2ccc(OCc3ccccn3)cc2c1C(=O)NC1(CO)CCNC1=O (single isomer, unassigned) [520 - En 2]		≤ 1
Cc1oc2ccc(OCc3cccnc3O)cc2c1C(=O)NC1(CO)CCNC1=O (single isomer, unassigned) [521 - En 1]		≤ 1
Cc1oc2ccc(OCc3cccnc3O)cc2c1C(=O)NC1(CO)CCNC1=O (single isomer, unassigned) [521 - En 2]		1 to 20
COc1ncccc1COc1ccc2oc(C)c(C(=O)NC3(CO)CCNC3=O)c2c1 (single isomer, unassigned) [522 - En 1]		≤ 1
Cc1oc2ccc(OCc3cccc(O)n3)cc2c1C(=O)NC1CCNCC1(F)F (single isomer, unassigned) [569 - En 1, N-(3,3-difluoropiperidin-4-yl)-2-methyl-5-((6-oxo-1,6-dihydropyridin-2-yl)methoxy)benzofuran-3-carboxamide]		1 to 20
Cc1ncc(COc2ccc3oc(C)c(C(=O)NC4(C(N)=O)CCCOC4)c3c2)s1 (single isomer, unassigned) [590 - En 1]		≤ 1
Cc1ncc(COc2ccc3oc(C)c(C(=O)NC4(C(N)=O)CCOC4)c3c2)s1 (single isomer, unassigned) [592 - En 1]		≤ 1
Cc1ncsc1COc1ccc2oc(C)c(C(=O)NC3(C(N)=O)CCOC3)c2c1 (single isomer, unassigned) [593 - En 1]		≤ 1
Cc1oc2ccc(OCc3ccccn3)cc2c1C(=O)NC1(C(N)=O)CCOC1 (single isomer, unassigned) [595 - En 1]		≤ 1
Cc1oc2ccc(OCc3c(F)cnn3C)cc2c1C(=O)NC1(C(N)=O)CCOC1 (single isomer, unassigned) [598 - En 1]		≤ 1
